Test results taken from ChEMBL document CHEMBL1201862, “PubChem BioAssay data set” (2004).
Activity calls are given as the source filed them.

Tests used:
Bcl-2-like protein 10 = biological target: T1, Bcl-2-like protein 10 (Homo sapiens, UniProt Q9HD36); experiment: displacers of TR3 peptide from Bcl-B, primary screen, selectivity assay for Bfl-1 inhibitor project, biochemical, fluorescence polarization, FITC-TR3 peptide (AID 748);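 note: fluorescence polarization from a fluorescein-labelled TR3 peptide binding purified Bcl-B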
T1 sequence (Q9HD36 whole entry): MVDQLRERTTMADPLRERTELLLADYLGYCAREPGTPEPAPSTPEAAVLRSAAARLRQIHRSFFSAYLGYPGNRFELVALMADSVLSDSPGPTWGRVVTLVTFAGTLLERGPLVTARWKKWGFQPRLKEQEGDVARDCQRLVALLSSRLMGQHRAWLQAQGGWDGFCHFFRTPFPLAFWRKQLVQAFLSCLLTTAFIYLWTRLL

Estrogen receptor beta [1] = biological target: T2, Estrogen receptor beta (Homo sapiens, UniProt Q92731);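 note: recombinant ER-beta bound to coactivator SRC1 peptide in presence of estradiol agonist; inhibitors block coactivator peptide binding and lower the FRET signal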
Estrogen receptor beta [2] = biological target: T2, Estrogen receptor beta; experiment: ERβ–SRC-3 coactivator interaction inhibitors, confirmation, orthogonal assay, biochemical, ELISA, streptavidin-HRP readout (AID 1060)
[3] = inhibitors of Vif binding to APOBEC3G peptide, primary screen, biochemical, TR-FRET, GST-Vif 1-94, biotin-A3G peptide, dose response retest (AID 1117319); format: functional;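 note: TR-FRET signal of purified GST-Vif binding a biotinylated A3G peptide; inhibitors lower the FRET signal by blocking Vif and A3G binding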
[4] = biological target: Peroxisome proliferator-activated receptor gamma/Nuclear receptor coactivator 2 (Homo sapiens, UniProt P37231); format: functional;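 note: agonist potency for raising coactivator recruitment to the receptor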
[5] = biological target: Peroxisome proliferator-activated receptor gamma/Nuclear receptor coactivator 1 (Homo sapiens, UniProt P37231); format: functional;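 note: agonist potency as compounds enhance coactivator SRC-1 recruitment to PPARgamma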
[6] = biological target: Peroxisome proliferator-activated receptor gamma/Nuclear receptor coactivator 3 (Homo sapiens, UniProt P37231); format: functional;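 note: agonist potency for raising coactivator recruitment to the receptor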
Cytochrome P450 3A4 = Cytochrome P450 3A4 (Homo sapiens, UniProt P08684); conditions: Potency;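 note: confirmatory qHTS run detecting inhibitors and substrates of CYP3A4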
HeLa = experiment: HeLa cell cytotoxicity, dose response, cytotoxicity control, 24 h, cherry-picked samples (AID 504726); format: functional, cell-based; conditions: Homo sapiens;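 note: potency for cytotoxicity as loss of luminescence signal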
ORF 73 = biological target: T3, ORF 73 (Human herpesvirus 8, UniProt O40947); experiment: inhibitors of C-LANA binding to LBS DNA, dose response, biochemical, fluorescence polarization, cherry-picked samples (AID 504725); set-up: species or system Human gammaherpesvirus 8;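 note: fluorescence polarization of a labeled DNA duplex reporting LANA DNA binding; potency is for inhibitors that block LANA binding to the DNA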
T3 sequence (O40947 whole entry): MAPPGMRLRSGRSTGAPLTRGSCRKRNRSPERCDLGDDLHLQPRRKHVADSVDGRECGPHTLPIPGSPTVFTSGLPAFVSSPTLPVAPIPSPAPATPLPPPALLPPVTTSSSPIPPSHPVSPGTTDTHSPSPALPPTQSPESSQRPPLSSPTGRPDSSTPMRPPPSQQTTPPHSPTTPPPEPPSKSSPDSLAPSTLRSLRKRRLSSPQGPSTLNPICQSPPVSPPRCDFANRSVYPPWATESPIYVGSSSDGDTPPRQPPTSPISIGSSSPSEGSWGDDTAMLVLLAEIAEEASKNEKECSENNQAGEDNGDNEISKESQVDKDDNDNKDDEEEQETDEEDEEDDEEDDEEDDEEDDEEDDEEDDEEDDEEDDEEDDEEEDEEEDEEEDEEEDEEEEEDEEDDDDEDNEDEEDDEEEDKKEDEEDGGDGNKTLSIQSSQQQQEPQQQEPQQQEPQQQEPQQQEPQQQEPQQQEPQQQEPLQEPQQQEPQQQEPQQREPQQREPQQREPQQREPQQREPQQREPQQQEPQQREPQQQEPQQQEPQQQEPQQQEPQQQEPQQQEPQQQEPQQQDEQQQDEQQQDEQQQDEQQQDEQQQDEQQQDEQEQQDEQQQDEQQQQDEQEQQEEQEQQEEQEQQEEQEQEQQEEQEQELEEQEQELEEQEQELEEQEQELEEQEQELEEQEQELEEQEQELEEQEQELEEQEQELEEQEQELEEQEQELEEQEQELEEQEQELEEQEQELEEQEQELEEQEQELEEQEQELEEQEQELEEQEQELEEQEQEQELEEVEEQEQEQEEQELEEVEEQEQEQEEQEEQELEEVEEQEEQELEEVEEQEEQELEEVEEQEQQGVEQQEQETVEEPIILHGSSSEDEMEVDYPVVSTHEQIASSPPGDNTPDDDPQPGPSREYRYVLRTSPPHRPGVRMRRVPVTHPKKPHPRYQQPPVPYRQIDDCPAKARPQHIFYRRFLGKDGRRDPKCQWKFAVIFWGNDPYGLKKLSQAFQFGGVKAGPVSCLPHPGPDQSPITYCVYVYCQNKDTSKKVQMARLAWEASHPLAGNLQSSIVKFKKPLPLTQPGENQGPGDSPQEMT

[7] = biological target: Luciferin 4-monooxygenase (Photinus pyralis, UniProt P08659); experiment: Counter Screen for Luciferase-based Assay Positives. [Related pubchem assays: 620, 618, 411 ]
HT-1080 = experiment: cytotoxicity in HT1080 fibrosarcoma cells, cell-based, fluorescence readout (AID 620); format: functional; conditions: Homo sapiens
[8] = LGR2 antagonists, dose response, cell-based, HEK293, CRE-luciferase reporter, cherry pick, set 2 (AID 743343); format: functional;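 note: transfected cells were stimulated with diluted bursicon conditioned medium after compound addition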
[9] = MC4R antagonists, dose response, counter-screen for LGR2 antagonist project, cell-based, plate reader, cherry pick (AID 743444); format: functional;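 note: transfected HEK 293 cells stimulated with alpha-MSH peptide; potency of inhibitors of the alpha-MSH evoked signal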
[10] = inhibitors of firefly luciferase expression or activity, dose response, H4 neuroglioma cells, luminescence (AID 1990); format: functional, cell-based
[11] = Luminescence Cell-Based Dose Response HTS to Identify Inhibitors of 5'UTR Stem-Loop Driven Prion Protein mRNA Translation in H4 Neuroglioblastoma Cells. [Related pubchem assays: 1827 (Project Summary), 1813 (Primary HTS)]; format: functional
[12] = inhibitors of SNCA 5'UTR-driven reporter translation, confirmation, H4 neuroglioma cells, luminescence (AID 1988); format: functional, cell-based
[13] = cytotoxicity in HPDE-C7 cells, cell-based, fluorescence, HTS (AID 430); format: functional; conditions: Homo sapiens
[14] = microbe, parasite or virus in culture; format: functional; conditions: Mycobacterium tuberculosis
[15] = cytotoxicity in KRAS-transformed pancreatic duct cells, primary screen, cell-based, fluorescence, HTS (AID 431); format: functional; conditions: Homo sapiens;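 note: cell line used: HPDE-C7K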
[16] = growth suppression of PTEN-null colon cells, dose response, cell-based, HCT116 PTEN knockout (AID 1047); format: functional;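 note: HCT116 colon tumor cells with PTEN knocked out; cells exposed to compound for 60 hours before readout; potency for loss of cell viability measured by luminescence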
[17] = growth suppression of beta-catenin-knockout colon cells, dose response, cell-based, HCT116, human colon tumor (AID 1045); format: functional;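 note: HCT116 colon tumor cells with beta catenin knocked out; cells exposed to compound for 60 hours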
[18] = cytotoxicity in HEK-293T cells, dose response, cytotoxicity control for BCR NF-kB inhibitor project, luminescence, B-cell screen hits (AID 489021); format: functional, cell-based;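 note: HEK-293T cells carrying an NF-kB luciferase reporter; cells exposed to compound for about 14 hours before viability readout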
Vero = Vero cell cytotoxicity, cytotoxicity control for flavivirus capping enzyme inhibitors (AID 588742); format: functional; conditions: Chlorocebus sabaeus
[19] = biological target: T4, Endoribonuclease toxin MazF (Escherichia coli K-12, UniProt P0AE70); experiment: MazF toxin RNase activators, dose response, biochemical, fluorescence, single-stranded RNA substrate, uHTS hits (AID 588481); format: functional
T4 sequence (P0AE70 whole entry): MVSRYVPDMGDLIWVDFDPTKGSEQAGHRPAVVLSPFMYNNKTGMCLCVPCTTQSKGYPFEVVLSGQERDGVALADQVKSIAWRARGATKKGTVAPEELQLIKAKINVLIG

[20] = biological target: T4, Endoribonuclease toxin MazF; experiment: fluorescent RNA oligo signal without MazF, dose response, counter-screen for MazEF activator project, biochemical, fluorescence, single-stranded RNase substrate (AID 588502); format: functional
[21] = biological target: T5, Corticotropin-releasing factor receptor 2/Corticotropin-releasing factor-binding protein (Homo sapiens, UniProt P24387+Q13324); experiment: activators of CRF receptor 2 with binding protein – uHTS hits, confirmation (AID 602473); format: functional; conditions: read-out: EC50_Mean
T5 sequence (Q13324 whole entry): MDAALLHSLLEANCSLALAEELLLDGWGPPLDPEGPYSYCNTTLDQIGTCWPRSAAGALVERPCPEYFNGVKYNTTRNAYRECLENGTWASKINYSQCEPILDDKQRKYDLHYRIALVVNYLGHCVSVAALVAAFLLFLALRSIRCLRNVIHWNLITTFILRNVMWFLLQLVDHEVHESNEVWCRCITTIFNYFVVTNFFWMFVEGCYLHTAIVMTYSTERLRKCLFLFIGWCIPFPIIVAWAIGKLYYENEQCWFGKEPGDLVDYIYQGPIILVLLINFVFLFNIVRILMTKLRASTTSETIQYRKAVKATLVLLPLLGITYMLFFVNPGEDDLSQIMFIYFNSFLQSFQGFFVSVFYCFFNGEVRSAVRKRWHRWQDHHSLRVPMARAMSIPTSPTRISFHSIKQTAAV
T5 sequence (P24387 whole entry): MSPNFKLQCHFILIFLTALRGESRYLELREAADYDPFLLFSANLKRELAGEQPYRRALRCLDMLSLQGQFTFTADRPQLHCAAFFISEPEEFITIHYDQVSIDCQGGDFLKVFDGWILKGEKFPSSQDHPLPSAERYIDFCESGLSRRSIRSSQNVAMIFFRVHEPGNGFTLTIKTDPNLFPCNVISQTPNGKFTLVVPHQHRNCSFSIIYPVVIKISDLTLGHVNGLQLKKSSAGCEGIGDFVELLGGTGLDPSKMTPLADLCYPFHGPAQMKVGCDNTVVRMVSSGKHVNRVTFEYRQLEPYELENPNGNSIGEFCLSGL

Sequence of Peroxisome proliferator-activated receptor gamma/Nuclear receptor coactivator 2 (P37231 whole entry): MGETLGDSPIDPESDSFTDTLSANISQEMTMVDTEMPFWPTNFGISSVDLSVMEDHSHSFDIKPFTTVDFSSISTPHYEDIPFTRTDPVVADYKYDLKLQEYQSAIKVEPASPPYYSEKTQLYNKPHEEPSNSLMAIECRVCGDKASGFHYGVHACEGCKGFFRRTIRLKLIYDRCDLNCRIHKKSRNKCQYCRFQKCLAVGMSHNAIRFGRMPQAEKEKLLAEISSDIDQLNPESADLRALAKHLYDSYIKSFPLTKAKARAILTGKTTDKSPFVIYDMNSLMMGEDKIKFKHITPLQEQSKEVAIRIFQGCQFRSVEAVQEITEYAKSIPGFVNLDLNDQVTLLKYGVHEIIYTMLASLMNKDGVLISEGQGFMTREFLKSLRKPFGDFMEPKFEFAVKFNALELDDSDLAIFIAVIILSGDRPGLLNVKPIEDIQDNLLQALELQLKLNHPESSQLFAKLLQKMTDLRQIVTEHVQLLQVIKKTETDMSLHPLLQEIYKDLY
Sequence of Peroxisome proliferator-activated receptor gamma/Nuclear receptor coactivator 2 (Q15596 whole entry, further chain): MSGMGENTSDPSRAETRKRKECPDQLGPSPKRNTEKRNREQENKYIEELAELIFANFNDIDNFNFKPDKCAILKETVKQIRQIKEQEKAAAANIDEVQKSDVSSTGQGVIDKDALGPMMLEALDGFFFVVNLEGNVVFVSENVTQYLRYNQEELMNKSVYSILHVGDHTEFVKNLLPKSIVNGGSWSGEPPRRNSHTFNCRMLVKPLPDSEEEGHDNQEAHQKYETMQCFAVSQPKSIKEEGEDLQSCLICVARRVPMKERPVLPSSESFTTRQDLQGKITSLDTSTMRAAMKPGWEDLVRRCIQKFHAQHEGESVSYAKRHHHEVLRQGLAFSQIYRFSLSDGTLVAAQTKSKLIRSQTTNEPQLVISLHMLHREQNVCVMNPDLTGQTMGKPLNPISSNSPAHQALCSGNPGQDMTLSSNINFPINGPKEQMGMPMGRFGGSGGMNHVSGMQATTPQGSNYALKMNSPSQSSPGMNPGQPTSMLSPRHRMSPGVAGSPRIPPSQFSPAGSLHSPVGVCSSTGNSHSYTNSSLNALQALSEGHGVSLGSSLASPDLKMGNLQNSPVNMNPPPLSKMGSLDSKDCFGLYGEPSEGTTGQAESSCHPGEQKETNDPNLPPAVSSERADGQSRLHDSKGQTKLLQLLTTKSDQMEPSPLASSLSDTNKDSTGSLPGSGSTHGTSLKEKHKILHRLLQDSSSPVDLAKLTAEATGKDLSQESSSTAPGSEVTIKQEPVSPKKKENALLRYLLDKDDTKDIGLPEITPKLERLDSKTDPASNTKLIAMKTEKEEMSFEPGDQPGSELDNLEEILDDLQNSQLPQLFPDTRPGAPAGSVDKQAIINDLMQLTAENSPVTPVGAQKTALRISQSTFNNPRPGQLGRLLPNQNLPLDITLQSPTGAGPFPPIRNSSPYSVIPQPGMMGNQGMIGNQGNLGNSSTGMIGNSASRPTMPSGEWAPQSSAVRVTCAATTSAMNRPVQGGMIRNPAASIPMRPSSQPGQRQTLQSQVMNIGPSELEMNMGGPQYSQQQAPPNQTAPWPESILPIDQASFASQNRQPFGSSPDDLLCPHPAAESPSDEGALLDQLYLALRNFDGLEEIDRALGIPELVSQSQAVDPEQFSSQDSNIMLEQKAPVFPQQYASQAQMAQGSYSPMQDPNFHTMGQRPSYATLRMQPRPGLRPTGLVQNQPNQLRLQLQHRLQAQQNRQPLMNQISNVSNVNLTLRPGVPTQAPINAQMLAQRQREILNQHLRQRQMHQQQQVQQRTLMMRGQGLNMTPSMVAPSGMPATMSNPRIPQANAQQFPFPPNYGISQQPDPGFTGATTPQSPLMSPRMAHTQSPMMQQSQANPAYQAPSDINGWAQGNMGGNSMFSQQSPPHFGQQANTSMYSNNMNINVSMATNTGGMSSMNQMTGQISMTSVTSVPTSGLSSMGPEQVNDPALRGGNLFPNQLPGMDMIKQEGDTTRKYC
Sequence of Peroxisome proliferator-activated receptor gamma/Nuclear receptor coactivator 1 (P37231 whole entry): as the sequence (P37231 whole entry) above
Sequence of Peroxisome proliferator-activated receptor gamma/Nuclear receptor coactivator 1 (Q15788 whole entry, further chain): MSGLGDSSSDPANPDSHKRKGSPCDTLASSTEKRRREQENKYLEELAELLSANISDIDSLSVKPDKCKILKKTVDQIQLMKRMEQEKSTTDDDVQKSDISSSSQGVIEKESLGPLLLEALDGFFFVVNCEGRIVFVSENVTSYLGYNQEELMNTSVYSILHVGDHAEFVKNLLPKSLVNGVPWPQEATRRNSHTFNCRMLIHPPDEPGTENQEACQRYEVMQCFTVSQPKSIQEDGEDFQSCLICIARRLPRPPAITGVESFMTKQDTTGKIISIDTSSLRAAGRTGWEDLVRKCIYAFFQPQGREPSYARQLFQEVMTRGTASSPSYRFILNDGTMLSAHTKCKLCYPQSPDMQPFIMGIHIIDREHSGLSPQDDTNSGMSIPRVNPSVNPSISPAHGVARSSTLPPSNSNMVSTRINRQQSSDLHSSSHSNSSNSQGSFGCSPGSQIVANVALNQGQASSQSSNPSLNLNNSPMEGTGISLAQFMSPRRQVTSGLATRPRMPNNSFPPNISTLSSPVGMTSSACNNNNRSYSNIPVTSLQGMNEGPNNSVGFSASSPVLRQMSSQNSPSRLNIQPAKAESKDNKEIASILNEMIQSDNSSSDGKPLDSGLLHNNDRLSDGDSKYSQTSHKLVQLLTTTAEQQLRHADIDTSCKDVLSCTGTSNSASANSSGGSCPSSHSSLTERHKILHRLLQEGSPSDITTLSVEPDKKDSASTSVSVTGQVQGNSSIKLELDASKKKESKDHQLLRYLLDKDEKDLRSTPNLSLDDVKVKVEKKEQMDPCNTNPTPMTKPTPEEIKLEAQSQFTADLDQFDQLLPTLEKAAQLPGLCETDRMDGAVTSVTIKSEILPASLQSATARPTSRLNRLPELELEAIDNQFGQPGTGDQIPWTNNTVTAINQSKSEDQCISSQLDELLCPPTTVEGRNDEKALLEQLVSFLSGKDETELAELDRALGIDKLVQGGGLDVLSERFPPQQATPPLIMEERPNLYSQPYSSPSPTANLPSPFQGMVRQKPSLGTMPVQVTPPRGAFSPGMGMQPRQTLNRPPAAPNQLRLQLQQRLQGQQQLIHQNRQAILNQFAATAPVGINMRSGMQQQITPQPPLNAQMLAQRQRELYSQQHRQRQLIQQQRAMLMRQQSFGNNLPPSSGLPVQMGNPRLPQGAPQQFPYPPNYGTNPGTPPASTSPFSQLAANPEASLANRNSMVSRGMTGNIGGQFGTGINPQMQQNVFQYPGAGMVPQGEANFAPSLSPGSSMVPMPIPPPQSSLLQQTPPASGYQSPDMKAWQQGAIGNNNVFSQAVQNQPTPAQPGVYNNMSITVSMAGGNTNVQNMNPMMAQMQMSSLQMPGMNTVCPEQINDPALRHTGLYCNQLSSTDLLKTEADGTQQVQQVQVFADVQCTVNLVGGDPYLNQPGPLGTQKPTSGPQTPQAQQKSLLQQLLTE
Sequence of Cytochrome P450 3A4 (P08684 whole entry): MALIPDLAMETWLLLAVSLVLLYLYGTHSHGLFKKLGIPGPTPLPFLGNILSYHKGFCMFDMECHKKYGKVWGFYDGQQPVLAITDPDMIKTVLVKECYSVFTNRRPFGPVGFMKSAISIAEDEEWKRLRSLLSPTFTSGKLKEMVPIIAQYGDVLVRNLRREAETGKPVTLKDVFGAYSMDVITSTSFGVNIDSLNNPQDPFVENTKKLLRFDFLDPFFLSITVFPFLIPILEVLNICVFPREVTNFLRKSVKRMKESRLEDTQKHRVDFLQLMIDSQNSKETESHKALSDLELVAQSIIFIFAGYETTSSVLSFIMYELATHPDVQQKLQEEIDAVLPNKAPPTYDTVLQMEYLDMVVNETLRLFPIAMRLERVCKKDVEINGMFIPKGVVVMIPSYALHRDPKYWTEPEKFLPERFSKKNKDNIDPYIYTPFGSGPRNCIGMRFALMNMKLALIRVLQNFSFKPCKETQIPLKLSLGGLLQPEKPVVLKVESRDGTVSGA
Sequence of Luciferin 4-monooxygenase (P08659 whole entry): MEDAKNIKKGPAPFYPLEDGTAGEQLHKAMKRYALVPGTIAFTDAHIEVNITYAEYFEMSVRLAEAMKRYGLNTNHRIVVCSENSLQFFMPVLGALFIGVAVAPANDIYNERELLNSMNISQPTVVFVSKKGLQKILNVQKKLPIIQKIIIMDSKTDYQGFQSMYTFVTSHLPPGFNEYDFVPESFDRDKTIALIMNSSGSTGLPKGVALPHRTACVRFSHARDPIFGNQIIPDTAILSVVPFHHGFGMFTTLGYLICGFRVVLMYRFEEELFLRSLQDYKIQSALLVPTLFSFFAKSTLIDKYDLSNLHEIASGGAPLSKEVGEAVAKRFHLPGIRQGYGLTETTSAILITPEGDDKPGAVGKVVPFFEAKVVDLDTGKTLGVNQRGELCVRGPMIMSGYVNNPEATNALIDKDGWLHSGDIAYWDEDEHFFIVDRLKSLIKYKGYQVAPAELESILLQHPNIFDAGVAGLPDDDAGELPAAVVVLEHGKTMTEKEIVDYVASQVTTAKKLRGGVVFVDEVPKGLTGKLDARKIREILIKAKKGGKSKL

CCc1ccccc1NC(=O)c1cc2ncc(Br)cn2n1
IC50 (Bcl-2-like protein 10): 62.5 µM (inactive) | IC50 (Estrogen receptor beta [1]): 31 µM (not active) | IC50 (Estrogen receptor beta [2]): 14.7 µM (not active) | IC50 [3]: > 100 µM (active)

CC(C)NC(=O)NC(=O)CSc1ccccc1F
EC50 [4]: > 79.4 µM (not active) | EC50 [5]: > 79.4 µM (not active) | EC50 [6]: > 79.4 µM (not active)

C[C@@H]1CCC2[C@](C)(CO)C(O)CC[C@@]2(C)[C@@]12CC[C@](CO)(CCO)O2 (stereo partly drawn)
AC50 (Cytochrome P450 3A4): 25.1 µM (inconclusive)

Oc1ccc(Cl)c(Cl)c1Cl
AC50 (Cytochrome P450 3A4): 15.8 µM (inconclusive)

CN(C)S(=O)(=O)c1cccc(N2C(=O)CC3(CCCCC3)CC2=O)c1
AC50 (HeLa): > 350 µM (inactive) | AC50 (ORF 73): 76.9 µM (active)

CCCCCc1ccc(-c2ccc(C(=O)O)cc2)nc1
EC50 [7]: 43.4 µM (active) | EC50 (HT-1080): > 50 µM (not active) | AC50 [8]: 13.9 µM (active) | AC50 [9]: 14.1 µM (active)

CC1CC(C)(C)Nc2ccc(OC(=O)c3ccco3)cc21 (stereo not drawn)
EC50 [10]: 8.25 µM (active) | EC50 [7]: < 0.2 µM (active) | EC50 [11]: 14.8 µM (active) | EC50 [12]: 20.1 µM (active) | EC50 [13]: 10.1 µM (active) | CC50 [14]: 30 µM (active) | EC50 [15]: 9.77 µM (active) | EC50 [16]: 8.58 µM (active) | EC50 (HT-1080): > 50 µM (not active) | EC50 [17]: 8.18 µM (active) | IC50 [18]: 50.9 µM (inactive) | CC50 (Vero): > 40 µM (active)

CC(C)=CCC1=C(O)C(=O)c2ccccc2C1=O [LAPACHOL]
AC50 (Cytochrome P450 3A4): 25.1 µM (inconclusive)

Clc1ccc(-c2nnc3sc(-c4ccc(Br)o4)nn23)cc1
EC50 [4]: 39.7 µM (not active) | EC50 [5]: > 79.4 µM (not active) | EC50 [6]: > 79.4 µM (not active) | AC50 (ORF 73): 27.1 µM (active) | EC50 [19]: > 99 µM (inactive) | EC50 [20]: > 99 µM (inactive) | EC50 [21]: > 53 µM (inactive)

O=C(C1=C[C@@H](c2ccc(C(F)(F)F)cc2)C[C@@H](OCCCCO)O1)N1CCN(Cc2ccc3c(c2)OCO3)CC1
EC50 [4]: > 79.4 µM (not active) | EC50 [5]: > 79.4 µM (not active) | EC50 [6]: > 79.4 µM (not active)
